According to patent US8697390B2, “Method and kit for examination of cells using N-(9-acridinyl) maleimide (NAM) or using 7-diethylamino-3-((4′-iodacetyl)amino)phenyl)-4-methylkcoumarin (CPI)” (ChemoMetec A/S, priority 2008, dated 2014):

How the values were obtained:
Jurkat (JM) cells [1] = experiment: CPI/PI staining as marker of cell viability in proliferating Jurkat cells; assay type: cell-based; details: 98% viable, 10 μL CPI (100 μg/mL DMSO) in 90 μL cells
Experimental: (§1) Jurkat (JM) cells were grown at 37° C. in a humidified air atmosphere with 5% CO2 in RPMI (Invitrogen, #61870) supplemented with 10% heat-inactivated fetal bovine serum (Invitrogen, #10108-165). 90 μL proliferating Jurkat cells (cell density 1.1×10^6, 98% viable determined using the NC-100 NucleoCounter system following the manufacturer's (ChemoMetec) protocol) were added 10 μL CPI (7-diethylamino-3-((4′-(iodoacetyl)amino)phenyl)-4-methylcoumarin, Sigma 78264 CAS no. 76877-34-4) dissolved in DMSO (100 μg CPI pr. mL DMSO) and mixed by pipetting. Cells were loaded into a NucleoCassette, containing the DNA stain propidium iodide (PI). The cells were investigated using an Olympus IX50 fluorescent microscope, and images were captured using a Lumenera CCD camera and in-house developed software. PI and CPI fluorescence were detected using, respectively, U-MWG2 (green long pass: 510-550 nm) and U-MNUA2 (UV band pass, 330-385 nm) filter cubes (Olympus).

Jurkat (JM) cells [2] = experiment: NAM/PI staining to determine viability of proliferating Jurkat cells (fluorescence microscopy); assay type: cell-based; details: 99% viable, 10 μL NAM (100 μg/mL DMSO) in 90 μL cells, UV band pass filter
Experimental: as §1, with “1.2×10^6, 99%” for “1.1×10^6, 98%”, “(ChemoMetec A/S)” for “(ChemoMetec)”, “NAM (N-(9-acridinyl)maleimide, Sigma, #01665,” for “CPI (7-diethylamino-3-((4′-(iodoacetyl)amino)phenyl)-4-methylcoumarin, Sigma 78264”, “49759-20-8)” for “76877-34-4)”, “NAM” for “CPI”

HEK293 cells = experiment: NAM/PI staining to determine viability of outgrown HEK293 cells (fluorescence microscopy); assay type: cell-based, human; details: for staining of Triton X-100 treated cells: HEK293 cells treated with 0.25% Triton X-100, then 10 μg/mL NAM, PI from NucleoCassette
Experimental: HEK293 cells were grown at 37° C. in a humidified air atmosphere with 5% CO2 in DMEM (Invitrogen, #31966) supplemented with 10% heat-inactivated fetal bovine serum (Invitrogen, #10108-165). Cells were harvested with 0.5 mL of trypsin (Invitrogen, #25300) and neutralized with 5 mL medium (DMEM+10% FCS) two days after they had reached full confluency. These outgrown HEK293 cells (cell density 1.6×10^6, 78% viable determined using the NC-100 NucleoCounter system following the manufacturer's (ChemoMetec) protocol) were stained with 10 μg/mL NAM (Sigma, #01665). Another cell sample were treated with 0.25% Triton X-100 (Sigma, #T9284) and hereafter added 10 μg/mL NAM. After staining, each cell sample was loaded into a NucleoCassette, containing the DNA stain propidium iodide (PI). The cells were investigated using an Olympus IX50 fluorescent microscope, and images were captured using a Lumenera CCD camera and in-house developed software. PI and NAM fluorescence were detected using, respectively, U-MWG2 (green long pass: 510-550 nm) and U-MNUA2 (UV band pass, 330-385 nm) filter cubes (Olympus).

Drosophila S2 cells = experiment: NAM/PI staining to determine viability of Drosophila S2 cells (fluorescence microscopy); assay type: cell-based, Drosophila melanogaster; details: 99% viable, diluted 10 times in PBS, 10 μg/mL NAM
Experimental: (Drosophila melanogaster Schneider line-2 (S2) cells were originally derived from late embryonic stage Drosophila embryos.) Drosophila S2 cells were grown at 28° C. without shaking in Schneider's Drosophila medium (Invitrogen, #21720) supplemented with 10% heat-inactivated fetal bovine serum (Invitrogen, #10108-165). S2 cells (cell density 1.7×10^7, 99% viable determined using the YC-100 NucleoCounter system with diploid settings following the manufacturer's (ChemoMetec) protocol) were diluted 10 times in PBS and stained with 10 μg/mL NAM (Sigma, #01665). Cells were loaded into a NucleoCassette, containing the DNA stain propidium iodide (PI). The cells were investigated using an Olympus IX50 fluorescent microscope, and images were captured using a Lumenera CCD camera and in-house developed software. PI and NAM fluorescence were detected using, respectively, U-MWG2 (green long pass: 510-550 nm) and U-MNUA2 (UV band pass, 330-385 nm) filter cubes (Olympus).

[3] = Excitation spectra of NAM with -SH reagents (spectrofluorophotometer); assay type: physicochemical
Experimental: The excitation spectra of NAM, glutathione GSH, GSSG and DTT and combinations thereof were obtained using a spectrofluorophotometer (RF-5301 Fluorescence Spectrophotometer, Shimadzu). 10 μL NAM dissolved in DMSO (100 μg/mL) were added to 3 mL distilled water (resulting concentration of NAM; 0.33 μg/mL) in a quartz cuvette and the excitation spectrum was recorded. Likewise were the spectra of NAM (0.33 μg/mL) together with GSH (167 μg/mL), NAM (0.33 μg/mL) together with GSSG (167 μg/mL), NAM together with DTT (167 μg/mL), GSH (167 μg/mL) alone, GSSG (167 μg/mL) alone and DTT (167 μg/mL) alone recorded.

MCF-7 cells = experiment: Intracellular localization of fluorescent NAM in GFP / H2B-GFP expressing cells; assay type: cell-based; details: 10 μg/ml NAM
Source text: (§2) MCF-7 (ATTC HTB-22) and U2OS (ATTC HTB-96) cells were cultivated in RPMI (Invitrogen, #61870)+10% FCS (Invitrogen, #10108-165). Cells were transfected with, respectively, pEGFP-C1 (Clontech) and pBOS-H2B-GFP (Pharmingen, BD Biosciences) using Lipofectamine 2000 (Invitrogen, #11668-027) according to manufacturer's instructions. Stable cells lines expressing GFP (green fluorescent protein) or H2B-GFP (GFP N-terminally fused to histone H2B) were cultivated in, respectively, T25 flasks and in chamber slides (Nunc) to 75% confluency. Cells from T25 flasks were harvested with 0.5 ml of trypsin (Invitrogen, #25300), neutralized with 5 ml of medium (RPMI+10% FCS), stained with 10 μg/ml NAM (N-(9-acridinyl), maleimide, Sigma, #01665) prior to mounting on a microscope slide. Cells grown on chamber slides were directly stained with 10 μg/ml NAM (N-(9-acridinyl)-maleimide). Olympus IX50 was used for microscopy, and images were captured using a Lumenera CCD camera and in-house developed software. GFP and NAM fluorescence were detected using, respectively, U-MNIB3 and U-MNUA2 filter cubes (Olympus).
(§3) Cells expression GFP or H2B-GFP were used for determining the intracellular localization of fluorescent NAM.

U2OS cells = experiment: as above; assay type: cell-based; details: 10 μg/ml NAM
Source text: as §2, §3

S. pombe strain Eg328 = experiment: NAM and propidium iodide staining of fission yeast; assay type: cell-based, Schizosaccharomyces pombe
Experimental: S. pombe strain Eg328, h^90 smt-0 ura4-D18, (ATCC 90720; Styrkarsdottir U et al. Curr. Genet. 23: 184-186, 1993) was grown in a rotary shaker at 29° C. to a density of 1×10^7 cells/ml in EMM minimal medium (Moreno et al., Methods Enzym. 194: 795-823, 1991) supplemented with 10 mM of L-uridine (Sigma, U3750). Cells were collected by centrifuging, washed with sterile water and stained with 10 μg/ml NAM (N-(9-acridinyl)-maleimide, Sigma, #01665) and 10 μg/ml propidium iodide (Applichem, #A2261.9010) prior to mounting on a microscope slide. Olympus IX50 was used for microscopy, and images were captured using a Lumenera CCD camera and in-house developed software. Propidium iodide and NAM fluorescence were detected using, respectively, U-MWG2 and U-MNUA2 filter cubes (Olympus).

[4] = test system: primary murine splenocytes; experiment: NAM/PI staining to determine viability of primary murine splenocytes; assay type: cell-based, C57BL/6 mouse; details: 90% viable, 10 μL NAM (100 μg/mL DMSO) in 90 μL cells
Experimental: The spleen from a C57BL/6 mouse was placed in ice-cold PBS and gently ground using the end of a sterile syringe. The suspension was centrifuged at 300 g for 10 minutes; the pellet was resuspended in 1 mL 0.83% NH4Cl to lyse erythrocytes and incubated for 3 minutes on ice. The cells were then added 14 mL PBS and centrifuged at 300 g for 10 minutes. The splenocytes were resuspended in RPMI (Invitrogen, #61870) supplemented with 10% heat-inactivated fetal bovine serum (Invitrogen, #10108-165), 100 U/mL penicillin and 100 μg/mL streptomycin (Invitrogen, #15140-122). The cell clumps were allowed to sediment and were removed by pipetting, and the resulting single cell suspension was used. 90 μL splenocytes (cell density 1.7×10^6, 90% viable determined using the NC-100 NucleoCounter system following the manufacturer's (ChemoMetec A/S) protocol) were added 10 μL NAM (N-(9-acridinyl)maleimide, Sigma, #01665, CAS no. 49759-20-8) dissolved in DMSO (100 μg NAM pr. mL DMSO) and mixed by pipetting. Cells were loaded into a NucleoCassette, containing the DNA stain propidium iodide (PI). The cells were investigated using an Olympus IX50 fluorescence microscope, and images were captured using a Lumenera CCD camera and in-house developed software. PI and NAM fluorescence were detected using, respectively, U-MWG2 (green long pass: 510-550 nm) and U-MNUA2 (UV band pass, 330-385 nm) filter cubes (Olympus).

bone marrow cells = experiment: NAM/PI staining to determine viability of bone marrow derived cells; assay type: cell-based, murine; details: 93% viable, 10 μL NAM (100 μg/mL DMSO) in 90 μL cells
Experimental: The bone marrow cells were harvested aseptically in the laminar flow hood. Briefly, bilateral tibia and femur were aseptically removed, freed of surrounding soft tissue, and placed in a petri dish with 10 mL 70% ethanol. After 2 minutes they were transferred to ice cold PBS. The bone marrow cavity was then flushed with 5 ml cold PBS using a 5-ml syringe with a 27-gauge needle attached, and the cells were collected from each bone. The cells were centrifuged at 300 g for 10 min, the supernatant was discarded, and cells were washed twice. After the second wash the cell pellet was resuspended in RPMI 1640 (Invitrogen, #61870) supplemented with 10% heat-inactivated fetal bovine serum (Invitrogen, #10108-165), 100 U/mL penicillin and 100 μg/mL streptomycin (Invitrogen, #15140-122). 90 μL bone marrow cells (cell density 1.7×10^6, 93% viable determined using the NC-100 NucleoCounter system following the manufacturer's (ChemoMetec A/S) protocol) were added 10 μL NAM (N-(9-acridinyl)maleimide, Sigma, #01665, CAS no. 49759-20-8) dissolved in DMSO (100 μg NAM pr. mL DMSO) and mixed by pipetting. Cells were loaded into a NucleoCassette, containing the DNA stain propidium iodide (PI). […] PI and NAM fluorescence were detected using, respectively, U-MWG2 (green long pass: 510-550 nm) and U-MNUA2 (UV band pass, 330-385 nm) filter cubes (Olympus).

[5] = Akasaka et al. 1990; cited from earlier work

CCN(CC)c1ccc2c(C)c(-c3ccc(NC(=O)CI)cc3)c(=O)oc2c1 [CPI, 7-diethylamino-3-((4′-(iodoacetyl)amino)phenyl)-4-methylcoumarin]
staining of cells by CPI versus PI (Jurkat (JM) cells [1]): nearly all cells were stained by CPI

O=C1C=CC(=O)N1c1c2ccccc2nc2ccccc12 [NAM, N-(9-acridinyl)maleimide]
staining of cells by NAM versus PI (Jurkat (JM) cells [2]): nearly all cells in the proliferating Jurkat cell culture were stained by NAM; only exception were PI positive cells
staining of Triton X-100 treated cells (HEK293 cells): NAM negative
staining of cells by NAM versus PI (HEK293 cells; outgrown HEK293 cells, 78% viable, 10 μg/mL NAM): NAM and PI were found to complementary stain the outgrown HEK293 cells
staining of cells by NAM versus PI (Drosophila S2 cells): NAM and PI were found to complementary stain S2 cells
fluorescence of NAM alone ([3]; NAM 0.33 μg/mL in distilled water, no thiol): only exhibited very weak fluorescence
fluorescence on mixing NAM with GSH ([3]; NAM 0.33 μg/mL, GSH 167 μg/mL): strong synergistic effect with respect to fluorescence
fluorescence on mixing NAM with DTT ([3]; NAM with DTT 167 μg/mL): strong synergistic effect with respect to fluorescence
intracellular localization of fluorescent NAM (MCF-7 cells; GFP-expressing cell lines): found in both the nucleus and cytosol
intracellular localization of fluorescent NAM (MCF-7 cells; H2B-GFP-expressing cells): found outside as well as inside the nucleus
intracellular localization of fluorescent NAM (U2OS cells; GFP-expressing cell lines): found in both the nucleus and cytosol
intracellular localization of fluorescent NAM (U2OS cells; H2B-GFP-expressing cells): found outside as well as inside the nucleus
intracellular localization of NAM in yeast cells (S. pombe strain Eg328; 10 μg/ml NAM): localizes to both the nucleus and cytosol
staining of living and dead yeast cells by NAM (S. pombe strain Eg328; 10 μg/ml NAM and 10 μg/ml propidium iodide): NAM stains both living and dead yeast cells
staining of cells by NAM versus PI [4]: nearly all the primary spleen cells were stained by NAM; only exception were PI positive cells
staining of cells by NAM versus PI (bone marrow cells): nearly all the primary bone marrow cells were stained by NAM; again only exception were PI positive cells
fluorescence of NAM upon reaction with sulfite [5]: fluoresces strongly

CC[N+](C)(CC)CCC[n+]1c(-c2ccccc2)c2cc(N)ccc2c2ccc(N)cc21.[I-].[I-] [PI, propidium iodide]
staining of Triton X-100 treated cells (HEK293 cells): PI positive
